Reference: US20100003217A1, “Compounds and Pharmaceutical Compositions for the Treatment of Viral Infections” (priority 2008, published 2010)
“And” between values parts separate entries of the source, which are not always exact repeats. Identical values can stand only once.

What was measured:
[1] = system: monkey primary hepatocytes; test: Metabolic disposition of [^14C]-Compound 1 and [^14C]-2′-C-methyl guanosine in monkey primary hepatocytes (incubation medium, cellular extracts, nucleotide levels); format: in vitro ADME, Cynomolgus monkey; conditions: for AUC (area under the concentration-time curve) of Compound 7 levels: 0-24 h
Method: (§1) Primary hepatocytes: Freshly isolated cells from animal and human liver were obtained in suspension on ice. Cells were pelleted by centrifugation at 70-75×g (rat) or 95-90×g (monkey and human) and resuspended at 0.8 million cells per mL of platting medium (William's E supplemented with 5% FBS, 0.5% penicillin-streptomycin, 1% L-glutamine, 4 μg/mL insulin and 1 μM dexamethasone). Multi-well collagen I-coated plates (rat tail collagen type I; 12- or 6-well) were then seeded by addition of 1 mL (12-well; 0.8 million cells/well) or 2 mL (6-well; 1.6 million cells/well) of cell suspension. The plates were gently shaken to evenly distribute the cells and placed in an incubator at 37° C. for approximately 4 to 6 hours to allow cells to attach. Once cells were attached, the platting medium was removed and replaced with hepatocyte culture medium (William's E supplemented with penicillin-streptomycin, 1% L-glutamine, 1% insulin-transferrin-selenium and 0.1 μM dexamethasone). Cells were left overnight in an incubator at 37° C. to acclimatize to culture and the medium.
(§2) Hepatocyte incubations with radiolabeled Compound 1 and 2′-C-methyl guanosine, both labeled in the C-8 position of the guanine moiety, were conducted at a final volume of 2.0 mL hepatocyte culture medium/well ([…]). Culture medium from overnight incubation of cells was removed and replaced with fresh medium, pre-warmed to 37° C., containing 1 or 10 μM [^14C]-Compound 1 ([…]) or [^14C]-2′-C-methyl guanosine (127 DPM/μmol) from a stock solution in DMSO (final DMSO concentration was 0.1%) or 50% ethanol (final ethanol concentration was 0.2%). After 1, 4, 8 and 24 hours, 0.5-1.0 mL of incubation medium was removed and stored at −20° C. until analysis (described below). The remaining medium was discarded and cell monolayers were carefully washed two times with ice-cold PBS. Following the last wash, all PBS was carefully removed and 1.0 mL of extraction solution (ice-cold 70% methanol) added. Cells were scrapped off and suspended in the extraction solution, transferred to 2 mL polypropylene microfuge tubes and intracellular contents extracted overnight at −20° C.
(§3) Preliminary identification of putative metabolites was conducted by comparing the retention time of observed metabolites in incubation medium and cellular extracts with retention times obtained with chemically synthesized standards using the chromatography conditions described below. Further identification of 2′-C-methyl guanosine nucleotides (mono-, di- and triphosphate) was carried out by incubating cellular extract samples with alkaline phosphatase (10 units for 60 min at 37° C.) and comparing the HPLC retention times of the resulting nucleosides with that of authentic 2′-C-methyl guanosine.
(§4) Cellular extracts were prepared by centrifugation at 16,000 RCF using an Eppendorf microcentrifuge (Eppendorf, Model 5415D) for 10 min to remove cellular debris. An aliquot of 5-10 μL of the supernatant was added to 5 mL of EcoLite™ (MP, Irvine, Calif.) liquid scintillation cocktail and radioactivity measured by liquid scintillation counting (LSC) using a Beckman Coulter LS6500 multipurpose liquid scintillation counter (Beckman Instruments, Fullerton, Calif.). The remaining sample was then dried using a Labconco refrigerated centrivap concentrator (Labconco, Kansas City, Mo.). Dry extracts were reconstituted in 120 μL of HPLC-grade water and centrifuged at 16,000 RCF using an Eppendorf microcentrifuge for 10 min. Prior to HPLC analysis (described below), radioactivity of the concentrated extracts was measured by LSC using 5 μL aliquots. Extraction recovery was then determined by comparing total radioactivity in extracts before and after drying. The remaining extract was then analyzed by HPLC with online radioactivity detection using a Flow Scintillation Analyzer Radiomatic™ 515TR. Radioactivity in the separated components was quantified by integrating the peaks using Flo-One™ Software (Perkin Elmer Life Sciences). […]

[2] = system: human primary hepatocytes; test: Metabolic disposition of [^14C]-Compound 1 and [^14C]-2′-C-methyl guanosine in human primary hepatocytes (incubation medium, cellular extracts, nucleotide levels); format: in vitro ADME; conditions: human hepatocytes (Hu759, Hu775)
Method: as §1, §2, §3, §4

[3] = monkey hepatocytes (Cy234), 10 μM [^14C]-Compound 1, 4 h
[4] = monkey hepatocytes Cy230, 10 μM [^14C]-2′-C-methyl guanosine, 1 h
[5] = monkey hepatocytes Cy230, 10 μM [^14C]-2′-C-methyl guanosine, 8 h
[6] = monkey hepatocytes Cy230, 10 μM [^14C]-2′-C-methyl guanosine, 24 h
[7] = monkey hepatocytes Cy234, 10 μM [^14C]-2′-C-methyl guanosine, 1 h
[8] = monkey hepatocytes Cy234, 10 μM [^14C]-2′-C-methyl guanosine, 4 h
[9] = monkey hepatocytes Cy234, 10 μM [^14C]-2′-C-methyl guanosine, 8 h
[10] = monkey hepatocytes Cy234, 10 μM [^14C]-2′-C-methyl guanosine, 24 h

## C[C@@]1(O)[C@H](O)[C@@H](COP(=O)(O)OP(=O)(O)OP(=O)(O)O)O[C@H]1n1cnc2c(=O)[nH]c(N)nc21 [Compound 7, [(2R)-2-methyl-β-D-ribofuranosyl]guanine 5′-triphosphate]
[1]; monkey hepatocytes (Cy230, Cy234), 10 μM [^14C]-Compound 1, 1 h
  metabolites observed in cellular extracts (% of total radioactivity): 63.4% and 34.9%
[1]; monkey hepatocytes (Cy230, Cy234), 10 μM [^14C]-Compound 1, 8 h
  metabolites observed in cellular extracts (% of total radioactivity): 80.9% and 77.6%
[1]; monkey hepatocytes (Cy230, Cy234), 10 μM [^14C]-Compound 1, 24 h
  metabolites observed in cellular extracts (% of total radioactivity): 72.2% and 79.4%
[1]; [3]
  2′-C-methyl guanosine nucleotide levels in cellular extracts: 183 pmol/million cells
  metabolites observed in cellular extracts (% of total radioactivity): 70.3%
[1]; monkey hepatocytes Cy230, 10 μM [^14C]-2′-C-methyl guanosine, 0 h
  2′-C-methyl guanosine nucleotide levels in cellular extracts: 0 pmol/million cells
[1]; monkey hepatocytes Cy230, 10 μM [^14C]-2′-C-methyl guanosine
  AUC (area under the concentration-time curve) of Compound 7 levels: 241 pmol * hr/million cells
[1]; [4]
  2′-C-methyl guanosine nucleotide levels in cellular extracts: 2.87 pmol/million cells
  Major metabolites observed in cellular extracts (% of total radioactivity): 3.63 % of total radioactivity
[1]; [5]
  2′-C-methyl guanosine nucleotide levels in cellular extracts: 14.58 pmol/million cells and 14.6 pmol/million cells
  Major metabolites observed in cellular extracts (% of total radioactivity): 19.9 % of total radioactivity
[1]; [6]
  2′-C-methyl guanosine nucleotide levels in cellular extracts: 6.85 pmol/million cells
  Major metabolites observed in cellular extracts (% of total radioactivity): 26.6 % of total radioactivity
[1]; monkey hepatocytes Cy230, 10 μM [^14C]-Compound 1, 0 h
  2′-C-methyl guanosine nucleotide levels in cellular extracts: 0 pmol/million cells
[1]; monkey hepatocytes Cy230, 10 μM [^14C]-Compound 1
  AUC (area under the concentration-time curve) of Compound 7 levels: 13765 pmol * hr/million cells
[1]; monkey hepatocytes Cy230, 10 μM [^14C]-Compound 1, 1 h
  2′-C-methyl guanosine nucleotide levels in cellular extracts: 180 pmol/million cells
[1]; monkey hepatocytes Cy230, 10 μM [^14C]-Compound 1, 8 h
  2′-C-methyl guanosine nucleotide levels in cellular extracts: 895 pmol/million cells
[1]; monkey hepatocytes Cy230, 10 μM [^14C]-Compound 1, 24 h
  2′-C-methyl guanosine nucleotide levels in cellular extracts: 344 pmol/million cells
[1]; monkey hepatocytes Cy234, 10 μM [^14C]-2′-C-methyl guanosine, 0 h
  2′-C-methyl guanosine nucleotide levels in cellular extracts: 0 pmol/million cells
[1]; monkey hepatocytes Cy234, 10 μM [^14C]-2′-C-methyl guanosine
  AUC (area under the concentration-time curve) of Compound 7 levels: 956 pmol * hr/million cells
[1]; [7]
  2′-C-methyl guanosine nucleotide levels in cellular extracts: 4.00 pmol/million cells
  Major metabolites observed in cellular extracts (% of total radioactivity): 8.70 % of total radioactivity
[1]; [8]
  2′-C-methyl guanosine nucleotide levels in cellular extracts: 29.0 pmol/million cells
  Major metabolites observed in cellular extracts (% of total radioactivity): 35.6 % of total radioactivity
[1]; [9]
  2′-C-methyl guanosine nucleotide levels in cellular extracts: 39.0 pmol/million cells
  Major metabolites observed in cellular extracts (% of total radioactivity): 43.0 % of total radioactivity
[1]; [10]
  2′-C-methyl guanosine nucleotide levels in cellular extracts: 57.0 pmol/million cells
  Major metabolites observed in cellular extracts (% of total radioactivity): 51.8 % of total radioactivity
[1]; monkey hepatocytes Cy234, 10 μM [^14C]-Compound 1, 0 h
  2′-C-methyl guanosine nucleotide levels in cellular extracts: 0 pmol/million cells
[1]; monkey hepatocytes Cy234, 10 μM [^14C]-Compound 1
  AUC (area under the concentration-time curve) of Compound 7 levels: 9861 pmol * hr/million cells
[1]; monkey hepatocytes Cy234, 10 μM [^14C]-Compound 1, 1 h
  2′-C-methyl guanosine nucleotide levels in cellular extracts: 22.0 pmol/million cells
[1]; monkey hepatocytes Cy234, 10 μM [^14C]-Compound 1, 8 h
  2′-C-methyl guanosine nucleotide levels in cellular extracts: 476 pmol/million cells
[1]; monkey hepatocytes Cy234, 10 μM [^14C]-Compound 1, 24 h
  2′-C-methyl guanosine nucleotide levels in cellular extracts: 552 pmol/million cells
[1]; monkey hepatocytes, 10 μM [^14C]-2′-C-methyl guanosine, at 24 hours
  Maximum Compound 7 levels: 32 pmol/million cells
[1]; monkey hepatocytes, 10 μM [^14C]-Compound 1
  Compound 7 AUC0-24h: 11,813 pmol*h/million cells
[1]; monkey hepatocytes, 10 μM [^14C]-Compound 1, from 4-24 hours
  major intracellular metabolite, % of total intracellular radioactivity: > 70%
[1]; monkey hepatocytes, 10 μM [^14C]-Compound 1, at 8 hours in one donor and at 24 hours in the second
  Compound 7 peak levels: 895 pmol/million cells and 552 pmol/million cells
[2]; 10 μM [^14C]-2′-C-methyl guanosine, 1 h
  metabolites observed in cellular extracts (% of total radioactivity): 2.40% and 3.93%
[2]; 10 μM [^14C]-2′-C-methyl guanosine, 4 h
  metabolites observed in cellular extracts (% of total radioactivity): 11.1% and 19.4%
[2]; 10 μM [^14C]-2′-C-methyl guanosine, 8 h
  metabolites observed in cellular extracts (% of total radioactivity): 19.6% and 34.1%
[2]; 10 μM [^14C]-2′-C-methyl guanosine, 24 h
  metabolites observed in cellular extracts (% of total radioactivity): 36.1% and 45.8%
[2]; 10 μM [^14C]-Compound 1, 1 h
  metabolites observed in cellular extracts (% of total radioactivity): 34.2% and 46.4%
[2]; 10 μM [^14C]-Compound 1, 4 h
  metabolites observed in cellular extracts (% of total radioactivity): 63.1% and 69.7%
[2]; 10 μM [^14C]-Compound 1, 8 h
  metabolites observed in cellular extracts (% of total radioactivity): 70.5% and 74.1%
